Test results as given in patent US6737383B1, “Herbicidal oxadiazolidines” (priority 1999, dated 2004).

Tests used:
[1] = test system: corn; experiment: Test B pre/postemergence corn; type: in vivo, Zea mays
Summary of the method: (§1)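 Response is a visual 0-to-10 score relative to untreated plants, where 0 means no effect and 10 means complete control, taken twelve to sixteen days after application. Treatments went onto soil at planting and onto foliage of 1- to 4-leaf plants, using a surfactant-containing non-phytotoxic solvent.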

[2] = test system: pigweed; experiment: Test B pre/postemergence pigweed; type: in vivo, Amaranthus retroflexus
Summary of the method: as §1

[3] = test system: soybean; experiment: Test B pre/postemergence soybean; type: in vivo, Glycine max
Summary of the method: as §1

[4] = test system: crabgrass; experiment: Test B pre/postemergence crabgrass; type: in vivo, Digitaria sanguinalis
Summary of the method: as §1

[5] = test system: sugar beet; experiment: Test B pre/postemergence sugar beet; type: in vivo, Beta vulgaris
Summary of the method: as §1

[6] = test system: blackgrass; experiment: Test B pre/postemergence blackgrass; type: in vivo, Alopecurus myosuroides
Summary of the method: as §1

[7] = test system: giant foxtail; experiment: Test B pre/postemergence giant foxtail; type: in vivo, Setaria faberii
Summary of the method: as §1

[8] = test system: wheat; experiment: Test B pre/postemergence wheat; type: in vivo, Triticum aestivum
Summary of the method: as §1

[9] = test system: cocklebur; experiment: Test B pre/postemergence cocklebur; type: in vivo, Xanthium strumarium
Summary of the method: as §1

[10] = test system: morningglory; experiment: Test B pre/postemergence morningglory; type: in vivo, Ipomoea hederacea
Summary of the method: as §1

[11] = test system: purple nutsedge; experiment: Test B pre/postemergence purple nutsedge; type: in vivo, Cyperus rotundus
Summary of the method: as §1

[12] = test system: duck salad; experiment: Test B flood test duck salad; type: in vivo, Heteranthera limosa
Summary of the method: (§2)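 Plants were grown to the 2-leaf stage before treatment with test chemical, then held in a greenhouse for twelve to sixteen days. Injury was visually rated against untreated controls on a 0–10 scale, where 0 is no effect and 10 is complete control.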

[13] = test system: rape; experiment: Test B pre/postemergence rape; type: in vivo, Brassica napus
Summary of the method: as §1

[14] = test system: smallflower flatsedge; experiment: Test B flood test smallflower flatsedge; type: in vivo, Cyperus difformis
Summary of the method: as §2

[15] = test system: bamyardgrass; experiment: Test B flood test barnyardgrass; type: in vivo, Echinochloa crus-galli
Summary of the method: as §2

[16] = test system: surinam grass; experiment: Test B pre/postemergence surinam grass; type: in vivo, Brachiaria decumbens
Summary of the method: as §1

[17] = test system: rice; experiment: Test B flood test rice; type: in vivo, Oryza sativa
Summary of the method: as §2

[18] = test system: wild oat; experiment: Test B pre/postemergence wild oat; type: in vivo, Avena fatua
Summary of the method: as §1

[19] = test system: bedstraw; experiment: Test B pre/postemergence bedstraw; type: in vivo, Galium aparine
Summary of the method: as §1

[20] = test system: velvetleaf; experiment: Test B pre/postemergence velvetleaf; type: in vivo, Abutilon theophrasti
Summary of the method: as §1

[21] = Postemergence, Rate 62 g/ha, scale 0 to 10, 0 is no effect, 10 is complete control
[22] = Postemergence, Rate 125 g/ha, scale of 0 to 10 where 0 is no effect and 10 is complete control
[23] = Postemergence, Rate 250 g/ha, scale of 0 to 10, 0 is no effect, 10 is complete control
[24] = Postemergence, Rate 500 g/ha, scale of 0 to 10 where 0 is no effect and 10 is complete control
[25] = Preemergence, Rate 62 g/ha, scale 0 to 10 (0 no effect, 10 complete control)
[26] = Preemergence, Rate 125 g/ha, scale of 0 to 10 where 0 is no effect and 10 is complete control
[27] = Preemergence, Rate 250 g/ha, scale 0 to 10 (0 no effect, 10 complete control)
[28] = Preemergence, Rate 500 g/ha, scale of 0 to 10 where 0 is no effect and 10 is complete control
[29] = Rate 62 g/ha, flood test species, Pre-emergence, visual evaluation after twelve to sixteen days
[30] = Rate 125 g/ha, under heading Pre-emergence, flood test species, visual evaluation after twelve to sixteen days
[31] = Rate 250 g/ha, Pre-emergence (flood test species), scale 0 to 10, 0 is no effect, 10 is complete control
[32] = Rate 500 g/ha, Pre-emergence section of Table B, 0 to 10 scale (0 no effect, 10 complete control)

COCCn1c(=O)on(C(=O)N(c2ccc(F)cc2F)C(C)C)c1=O [Compound 628]
Plant response rating, Corn [1, 21]: 0 | Plant response rating, Corn [1, 22]: 6 | Corn plant response rating [1, 23]: 7 | Plant response rating, Corn [1, 24]: 7 | Corn plant response rating [1, 25]: 3 | Corn plant response rating [1, 26]: 6 | Plant response rating, Corn [1, 27]: 7 | Plant response rating, Corn [1, 28]: 9 | Plant response rating, Redroot pigweed [2, 21]: 3 | Plant response rating, Redroot pigweed [2, 22]: 3 | Redroot pigweed plant response rating [2, 23]: 7 | Redroot pigweed plant response rating [2, 25]: 8 | Redroot pigweed plant response rating [2, 26]: 9 | Plant response rating, Redroot pigweed [2, 27]: 9 | Plant response rating, Redroot pigweed [2, 28]: 10 | Plant response rating, Soybean [3, 21]: 4 | Soybean plant response rating [3, 25]: 0 | Soybean plant response rating [3, 26]: 0 | Plant response rating, Soybean [3, 27]: 4 | Plant response rating, Soybean [3, 28]: 7 | Plant response rating, Crabgrass [4, 21]: 8 | Crabgrass plant response rating [4, 23]: 9 | Plant response rating, Crabgrass [4, 24]: 9 | Crabgrass plant response rating [4, 25]: 8 | Crabgrass plant response rating [4, 26]: 8 | Plant response rating, Crabgrass [4, 27]: 9 | Plant response rating, Crabgrass [4, 28]: 10 | Plant response rating, Sugarbeets [5, 21]: 0 | Plant response rating, Sugarbeets [5, 22]: 0 | Sugarbeets plant response rating [5, 23]: 3 | Sugarbeets plant response rating [5, 25]: 3 | Sugarbeets plant response rating [5, 26]: 4 | Plant response rating, Sugarbeets [5, 27]: 7 | Plant response rating, Sugarbeets [5, 28]: 7 | Plant response rating, Blackgrass [6, 21]: 6 | Plant response rating, Blackgrass [6, 22]: 8 | Blackgrass plant response rating [6, 23]: 9 | Plant response rating, Blackgrass [6, 24]: 9 | Blackgrass plant response rating [6, 25]: 6 | Blackgrass plant response rating [6, 26]: 9 | Plant response rating, Blackgrass [6, 27]: 10 | Plant response rating, Blackgrass [6, 28]: 10 | Plant response rating, Giant foxtail [7, 21]: 8 | Plant response rating, Giant foxtail [7, 22]: 9 | Giant foxtail plant response rating [7, 23]: 9 | Plant response rating, Giant foxtail [7, 24]: 9 | Giant foxtail plant response rating [7, 25]: 10 | Giant foxtail plant response rating [7, 26]: 10 | Plant response rating, Giant foxtail [7, 27]: 10 | Plant response rating, Giant foxtail [7, 28]: 10 | Plant response rating, Wheat [8, 21]: 0 | Plant response rating, Wheat [8, 22]: 4 | Wheat plant response rating [8, 23]: 7 | Wheat plant response rating [8, 25]: 3 | Wheat plant response rating [8, 26]: 3 | Plant response rating, Wheat [8, 27]: 7 | Plant response rating, Wheat [8, 28]: 10 | Plant response rating, Cocklebur [9, 21]: 0 | Plant response rating, Cocklebur [9, 22]: 1 | Cocklebur plant response rating [9, 23]: 6 | Plant response rating, Cocklebur [9, 24]: 7 | Cocklebur plant response rating [9, 25]: 2 | Cocklebur plant response rating [9, 26]: 3 | Plant response rating, Cocklebur [9, 27]: 4 | Plant response rating, Cocklebur [9, 28]: 7 | Plant response rating, Morningglory [10, 21]: 1 | Plant response rating, Morningglory [10, 22]: 2 | Morningglory plant response rating [10, 23]: 2 | Plant response rating, Morningglory [10, 24]: 2 | Morningglory plant response rating [10, 25]: 5 | Morningglory plant response rating [10, 26]: 5 | Plant response rating, Morningglory [10, 27]: 5 | Plant response rating, Morningglory [10, 28]: 7 | Plant response rating, Nutsedge [11, 21]: 0 | Nutsedge plant response rating [11, 25]: 3 | Nutsedge plant response rating [11, 26]: 6 | Plant response rating, Nutsedge [11, 27]: 6 | Plant response rating, Nutsedge [11, 28]: 9 | Plant response rating, Ducksalad (0 to 10 scale, 0 is no effect, 10 is complete control) [12, 29]: 0 | Ducksalad plant response rating (0 to 10 scale, 0 is no effect, 10 is complete control) [12, 30]: 0 | Ducksalad plant response rating [12, 31]: 0 | Ducksalad plant response rating [12, 32]: 0 | Plant response rating, Rape [13, 21]: 0 | Plant response rating, Rape [13, 22]: 0 | Rape plant response rating [13, 23]: 3 | Plant response rating, Rape [13, 24]: 6 | Rape plant response rating [13, 25]: 0 | Rape plant response rating [13, 26]: 2 | Plant response rating, Rape [13, 27]: 4 | Plant response rating, Rape [13, 28]: 9 | Plant response rating, S. Flatsedge (0 to 10 scale, 0 is no effect, 10 is complete control) [14, 29]: 0 | S. Flatsedge plant response rating (0 to 10 scale, 0 is no effect, 10 is complete control) [14, 30]: 0 | S. Flatsedge plant response rating [14, 31]: 0 | S. Flatsedge plant response rating [14, 32]: 0 | Plant response rating, Barnyardgrass (0 to 10 scale, 0 is no effect, 10 is complete control) [15, 29]: 0 | Barnyardgrass plant response rating (0 to 10 scale, 0 is no effect, 10 is complete control) [15, 30]: 0 | Barnyardgrass plant response rating [15, 31]: 0 | Barnyardgrass plant response rating [15, 32]: 0 | Plant response rating, B. signalgrass [16, 21]: 2 | Plant response rating, B. signalgrass [16, 22]: 8 | B. signalgrass plant response rating [16, 23]: 8 | Plant response rating, B. signalgrass [16, 24]: 8 | B. signalgrass plant response rating [16, 25]: 3 | B. signalgrass plant response rating [16, 26]: 7 | Plant response rating, B. signalgrass [16, 27]: 8 | Plant response rating, B. signalgrass [16, 28]: 10 | Plant response rating, Rice (0 to 10 scale, 0 is no effect, 10 is complete control) [17, 29]: 0 | Rice plant response rating (0 to 10 scale, 0 is no effect, 10 is complete control) [17, 30]: 0 | Rice plant response rating [17, 31]: 0 | Rice plant response rating [17, 32]: 0 | Plant response rating, Wild oats [18, 21]: 0 | Plant response rating, Wild oats [18, 22]: 3 | Wild oats plant response rating [18, 23]: 5 | Wild oats plant response rating [18, 26]: 2 | Plant response rating, Wild oats [18, 27]: 8 | Plant response rating, Wild oats [18, 28]: 10 | Plant response rating, Bedstraw [19, 21]: 0 | Bedstraw plant response rating [19, 25]: 6 | Bedstraw plant response rating [19, 26]: 7 | Plant response rating, Bedstraw [19, 27]: 10 | Plant response rating, Bedstraw [19, 28]: 10 | Plant response rating, Velvetleaf [20, 21]: 6 | Plant response rating, Velvetleaf [20, 22]: 6 | Velvetleaf plant response rating [20, 23]: 8 | Velvetleaf plant response rating [20, 25]: 7 | Plant response rating, Velvetleaf [20, 27]: 9 | Plant response rating, Velvetleaf [20, 28]: 10
